Measurements reported in ChEMBL document CHEMBL3271954, “Antitumor agents. 25. Synthesis and antitumor activity of uracil and thymine alpha-methylene-gamma-lactones and related derivatives” (1977).
Active and inactive are the calls of the source. No cut-off for these calls is given here.

Columns and labels:
Type in all cases: functional
Conditions in all cases: for T/C: route intraperitoneal
P388 = experiment: Antitumor activity against mouse P388 cells allografted in DBA/2 mouse at 25 mg/kg/day, ip administered for 2 weeks relative to control
B16 = experiment: Antitumor activity against mouse B16 cells allografted in C57Bl/6 mouse at 25 mg/kg/day, ip administered for 2 weeks relative to control
W256 = experiment: Antitumor activity against rat Walker 256 cells allografted in Sprague-Dawley rat at 2.5 mg/kg/day, ip relative to control

| SMILES | T/C (P388) [%] | T/C (B16) [%] | T/C (W256) [%] | Activity (W256) | Activity (P388) | Activity (B16) |
| --- | --- | --- | --- | --- | --- | --- |
| O=c1[nH]cc(F)c(=O)[nH]1 [FLUOROURACIL] | 186 | 164 | – | – | – | – |
| C=C1C(=O)O[C@H]2[C@H]1[C@H](OC(=O)/C(C)=C/CO)C/C(C)=C/CC[C@@]1(CO)O[C@H]21 | 147 | 111 | 330 | – | – | – |
| O=c1cc[nH]c(=O)[nH]1 | – | – | – | inactive | inactive | inactive |
| N[C@@H](Cc1ccc(N(CCCl)CCCl)cc1)C(=O)O [MELPHALAN] | – | – | 317 | – | – | – |
| C=C1CC(C)(Cn2cc(C)c(=O)[nH]c2=O)OC1=O (configuration not stated) | 127 | 123 | 127 | – | – | – |
| C=C1CC(C)(Cn2ccc(=O)[nH]c2=O)OC1=O (configuration not stated) | 115 | 111 | 131 | – | – | – |
| C=C1C(=O)O[C@H]2/C=C(/C)[C@H](CO)C/C=C(\C)C[C@@H](OC(=O)/C(=C/CO)CO)[C@@H]12 [EUPAFORMOSANIN] | 147 | 113 | 471 | – | – | – |
| C=C1CC(C)(Cn2cc(COC(=O)c3cc(OC)c(OC)c(OC)c3)c(=O)[nH]c2=O)OC1=O (configuration not stated) | 142 | 129 | 209 | – | – | – |
| C=C1CC(C)(Cn2cc(COC(=O)/C=C/c3ccccc3)c(=O)[nH]c2=O)OC1=O (configuration not stated) | 130 | 141 | 211 | – | – | – |
| Cc1c[nH]c(=O)[nH]c1=O | – | – | – | inactive | inactive | inactive |
